According to the CheMixHub viscosity set:
Values joined by “and” are separate entries in the source; they are usually repeats but may differ in a detail not shown here. Identical values can stand only once.

Assay: xn = mol fraction of the nth substance listed

CCOC(=O)CCl + OCc1ccccc1
viscosity [mPa·s], 101.3 kPa
Conditions | x1 = 0.1072 | x1 = 0.2035 | x1 = 0.2998 | x1 = 0.395 | x1 = 0.5 | x1 = 0.5984 | x1 = 0.6981 | x1 = 0.7972 | x1 = 0.8941
298.15 K | 4.078 | 3.295 | 2.729 | 2.285 | 1.923 | 1.669 | 1.459 | 1.326 | 1.188
303.15 K | 3.567 | 2.887 | 2.428 | 2.036 | 1.747 | 1.516 | 1.334 | 1.209 | 1.092
308.15 K | 3.058 | 2.48 | 2.127 | 1.815 | 1.572 | 1.365 | 1.209 | 1.093 | 0.997

CCCCCCCCCCCC[P+](CCCC)(CCCC)CCCC.N#Cc1ccc[n-]1 + OCCN(CCO)CCO
100 kPa
Conditions | viscosity [mPa·s]
293.15 K, x1 = 0.017 | 983
293.15 K, x1 = 0.244 | 974
293.15 K, x1 = 0.325 | 926
293.15 K, x1 = 0.431 | 828
293.15 K, x1 = 0.538 | 765
293.15 K, x1 = 0.755 | 675
298.15 K, x1 = 0.035 | 674
298.15 K, x1 = 0.054 | 682
298.15 K, x1 = 0.096 | 687
298.15 K, x1 = 0.121 | 686
298.15 K, x1 = 0.177 | 678

Oc1cccc(Cl)c1 + CCO
Conditions | viscosity [mPa·s]
298.15 K, 101 kPa, x1 = 0.5 | 1.45

CCNCCO + CN(C)CCO
viscosity [mPa·s], 101.3 kPa
Conditions | x1 = 0.0999 | x1 = 0.2001 | x1 = 0.3 | x1 = 0.4 | x1 = 0.4998 | x1 = 0.6001 | x1 = 0.7 | x1 = 0.8002 | x1 = 0.9
293.15 K | 3.88 | 4.63 | 5.5 | 6.48 | 7.55 | 8.66 | 9.82 | 10.97 | 12.14
303.15 K | 2.92 | 3.31 | 3.85 | 4.47 | 5.17 | 5.88 | 6.63 | 7.39 | 8.16
313.15 K | 2.18 | 2.42 | 2.8 | 3.22 | 3.71 | 4.24 | 4.78 | 5.32 | 5.84
323.15 K | 1.79 | 1.95 | 2.15 | 2.39 | 2.68 | 2.98 | 3.3 | 3.62 | 3.93

CCOCCOCCOCC + CCCN
298.15 K, 101 kPa
Conditions | viscosity [mPa·s]
x1 = 0.005 | 0.361
x1 = 0.0106 | 0.367
x1 = 0.0197 | 0.379
x1 = 0.0413 | 0.402
x1 = 0.0623 | 0.423
x1 = 0.0897 | 0.451
x1 = 0.1329 | 0.498
x1 = 0.1762 | 0.538
x1 = 0.2138 | 0.572
x1 = 0.2434 | 0.6
x1 = 0.2446 | 0.603
x1 = 0.2849 | 0.636
x1 = 0.2887 | 0.64
x1 = 0.3251 | 0.672
x1 = 0.3686 | 0.709
x1 = 0.4053 | 0.737
x1 = 0.4615 | 0.786
x1 = 0.5261 | 0.848
x1 = 0.5564 | 0.875
x1 = 0.6025 | 0.919
x1 = 0.6358 | 0.951
x1 = 0.6749 | 0.988
x1 = 0.7261 | 1.038
x1 = 0.7852 | 1.09
x1 = 0.8437 | 1.152
x1 = 0.8917 | 1.201
x1 = 0.9396 | 1.235
x1 = 0.9698 | 1.248

CC(C)OCCO + CCCCCCCCCCO
viscosity [mPa·s], 101 kPa
Conditions | 298.15 K | 303.15 K | 308.15 K
x1 = 0.0501 | 11.21 | 9.204 | 7.728
x1 = 0.1066 | 10.53 | 8.634 | 7.235
x1 = 0.1507 | 10.01 | 8.194 | 6.853
x1 = 0.253 | 8.94 | 7.311 | 6.115
x1 = 0.3119 | 8.302 | 6.783 | 5.668
x1 = 0.3516 | 7.856 | 6.41 | 5.352
x1 = 0.4159 | 7.17 | 5.836 | 4.871
x1 = 0.5018 | 6.315 | 5.145 | 4.3
x1 = 0.6016 | 5.388 | 4.398 | 3.692
x1 = 0.7014 | 4.518 | 3.715 | 3.149
x1 = 0.8012 | 3.69 | 2.991 | 2.564
x1 = 0.854 | 3.267 | 2.661 | 2.308
x1 = 0.9003 | 2.873 | 2.385 | 2.097
x1 = 0.9507 | 2.516 | 2.166 | 1.948

c1ccc2c(c1)CCCC2 + CCCCCCCCCCCC
323.15 K, 100 kPa
Conditions | viscosity
x1 = 0.399 | 0.965 mPa·s and 0.964 mPa·s
x1 = 0.714 | 1.06 mPa·s

OC[C@@H](O)[C@@H](O)[C@H](O)[C@@H](O)CO + CC(=O)[O-].CC[n+]1ccn(C)c1
Conditions | viscosity [mPa·s]
313.15 K, 100 kPa, x1 = 0.5 | 572.5

CC(C)c1cc(C(C)C)cc(C(C)C)c1 + CCCCCCCCCCCCCCCC
viscosity [mPa·s], 102 kPa
Conditions | x1 = 0.1209 | x1 = 0.1996 | x1 = 0.3001 | x1 = 0.3994 | x1 = 0.5003 | x1 = 0.6004 | x1 = 0.6998 | x1 = 0.7999 | x1 = 0.8993
293.15 K | 3.41 | 3.37 | 3.35 | 3.34 | 3.37 | 3.43 | 3.53 | 3.67 | 3.86
303.15 K | 2.7 | 2.67 | 2.64 | 2.63 | 2.64 | 2.66 | 2.71 | 2.79 | 2.9
313.15 K | 2.19 | 2.16 | 2.13 | 2.12 | 2.12 | 2.13 | 2.15 | 2.19 | 2.26
323.15 K | 1.81 | 1.79 | 1.76 | 1.75 | 1.74 | 1.74 | 1.75 | 1.77 | 1.81

COC(=O)c1ccccc1 + CCO
viscosity [mPa·s], 100 kPa
Conditions | x1 = 0.05 | x1 = 0.1 | x1 = 0.2 | x1 = 0.3 | x1 = 0.4 | x1 = 0.5 | x1 = 0.6 | x1 = 0.65 | x1 = 0.8 | x1 = 0.9
293.2 K | 1.178 | 1.178 | 1.207 | 1.26 | 1.325 | 1.402 | 1.489 | 1.536 | 1.701 | 1.842
298.2 K | 1.074 | 1.076 | 1.102 | 1.15 | 1.208 | 1.276 | 1.355 | 1.397 | 1.542 | 1.667
303.2 K | 0.98 | 0.983 | 1.008 | 1.052 | 1.106 | 1.167 | 1.238 | 1.276 | 1.408 | 1.518
308.2 K | 0.896 | 0.901 | 0.925 | 0.966 | 1.015 | 1.072 | 1.137 | 1.17 | 1.291 | 1.391
313.2 K | 0.822 | 0.827 | 0.851 | 0.89 | 0.936 | 0.988 | 1.047 | 1.079 | 1.188 | 1.279
